Where “and” joins values, the source holds several entries; their conditions need not be identical. Equal entries are not always repeated. Inconclusive results and toxic doses are left out. Cut-off read from the data, not from the text of the source: active = T/C of 150% or more; inactive = T/C below 125%.
System: L1210 leukemia ip in BDF1 mice, survival T/C
Test: NCI In Vivo Anticancer Drug Screen. Data for tumor model L1210 Leukemia (intraperitoneal) in B6D2F1 (BDF1) mice
Details: endpoint: mean survival time, higher = longer survival
How it was run: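 Ratio derived from survival: compound-dosed mice over vehicle-dosed mice, all bearing a transplantable tumor.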

[1] = dose: 25.0 mg/kg/injection, schedule: Q01DX009 (ip), vehicle: Klucel (hydroxypropylcellulose) (HPC)
[2] = dose: 50.0 mg/kg/injection, schedule: Q01DX009 (ip), vehicle: Klucel (hydroxypropylcellulose) (HPC)
[3] = dose: 100.0 mg/kg/injection, schedule: Q01DX009 (ip), vehicle: Klucel (hydroxypropylcellulose) (HPC)
[4] = dose: 200.0 mg/kg/injection, schedule: Q01DX009 (ip), vehicle: Klucel (hydroxypropylcellulose) (HPC)
[5] = dose: 400.0 mg/kg/injection, schedule: Q01DX009 (ip), vehicle: Klucel (hydroxypropylcellulose) (HPC)
[6] = dose: 100.0 mg/kg/injection, schedule: Q01DX001 (ip), vehicle: saline
[7] = dose: 200.0 mg/kg/injection, schedule: Q01DX001 (ip), vehicle: saline
[8] = dose: 400.0 mg/kg/injection, schedule: Q01DX001 (ip), vehicle: saline
[9] = dose: 12.5 mg/kg/injection, schedule: Q01DX009 (ip), vehicle: Klucel (hydroxypropylcellulose) (HPC)
[10] = dose: 12.5 mg/kg/injection, schedule: Q04DX003 (ip), vehicle: saline with Tween-80
[11] = dose: 25.0 mg/kg/injection, schedule: Q01DX009 (ip), vehicle: saline with Tween-80
[12] = dose: 25.0 mg/kg/injection, schedule: Q04DX003 (ip), vehicle: saline with Tween-80
[13] = dose: 50.0 mg/kg/injection, schedule: Q04DX003 (ip), vehicle: saline with Tween-80
[14] = dose: 100.0 mg/kg/injection, schedule: Q04DX003 (ip), vehicle: saline with Tween-80
[15] = dose: 200.0 mg/kg/injection, schedule: Q04DX003 (ip), vehicle: saline with Tween-80
[16] = dose: 400.0 mg/kg/injection, schedule: Q04DX003 (ip), vehicle: saline with Tween-80
[17] = dose: 100.0 mg/kg/injection, schedule: Q04DX002 (ip), vehicle: Klucel (hydroxypropylcellulose) (HPC)
[18] = dose: 200.0 mg/kg/injection, schedule: Q04DX002 (ip), vehicle: Klucel (hydroxypropylcellulose) (HPC)
[19] = dose: 100.0 mg/kg/injection, schedule: Q01DX009 (ip), vehicle: saline with Tween-80
[20] = dose: 200.0 mg/kg/injection, schedule: Q01DX009 (ip), vehicle: saline with Tween-80
[21] = dose: 400.0 mg/kg/injection, schedule: Q01DX009 (ip), vehicle: saline with Tween-80
[22] = dose: 50.0 mg/kg/injection, schedule: Q01DX009 (ip), vehicle: saline with Tween-80

Measured: T/C

CSC1=NCCS1
inactive: [1] 97 % of control | [2] 102 % of control | [3] 105 % of control | dose: 100.0 mg/kg/injection, schedule: Q01DX009 (ip), vehicle: carboxymethylcellulose (CMC) 111 % of control | dose: 200.0 mg/kg/injection, schedule: Q01DX009 (ip), vehicle: carboxymethylcellulose (CMC) 101 % of control

COc1ccc(/C=N/NC(=O)COCC(=O)N/N=C/c2ccc(OC)c(OC)c2)cc1OC
inactive: [3] 101 % of control | [4] 95 % of control | [5] 92 % of control

CCC(C)N(C)N=Nc1ccc(C(N)=O)cc1 (centres undefined)
inactive: dose: 178.0 mg/kg/injection, schedule: Q01DX001 (ip), vehicle: other 104 % of control | dose: 267.0 mg/kg/injection, schedule: Q01DX001 (ip), vehicle: other 112 % of control

COC1OC(CO)C(O)C(OC)C1NC(C)=O (centres undefined)
inactive: [6] 103 % of control | [7] 106 % of control | [8] 101 % of control

O=[N+]([O-])c1ccc(C(O)C=C(C(F)(F)F)C(F)(F)F)cc1 (centres undefined)
inactive: [9] 100 % of control | [1] 97 % of control | dose: 100.0 mg/kg/injection, schedule: Q04DX003 (ip), vehicle: Klucel (hydroxypropylcellulose) (HPC) 95 % of control | dose: 200.0 mg/kg/injection, schedule: Q04DX003 (ip), vehicle: Klucel (hydroxypropylcellulose) (HPC) 95 % of control | dose: 400.0 mg/kg/injection, schedule: Q04DX003 (ip), vehicle: Klucel (hydroxypropylcellulose) (HPC) 97 % of control

O=C(O)c1ccc([N+](=O)[O-])cc1S(=O)(=O)O
inactive: [6] 102 % of control | [7] 102 % of control | [8] 100 % of control

ClB(Cl)c1ccc(Br)cc1
inactive: [6] 97 % of control | [7] 86 % of control | [8] 95 % of control

CCCCCCCCCCOC(CN)C(Cl)(Cl)Cl (centres undefined)
inactive: dose: 12.5 mg/kg/injection, schedule: Q01DX009 (ip), vehicle: saline with Tween-80 93 % of control | [10] 98 % of control | [11] 97 % of control | [12] 101 % of control | [13] 103 % of control

COc1ccc2[nH]c3c(C)cc(C=O)c(C)c3c2c1
inactive: dose: 100.0 mg/kg/injection, schedule: Q01DX001 (ip), vehicle: other 101 % of control | [14] 102 % of control | dose: 200.0 mg/kg/injection, schedule: Q01DX001 (ip), vehicle: other 95 % of control | [15] 101 % of control | dose: 400.0 mg/kg/injection, schedule: Q01DX001 (ip), vehicle: other 91 % of control | [16] 96 % of control

COc1ccc(-n2c(=O)c(N=Nc3ccccc3Cl)c(O)n(-c3ccccc3C)c2=S)cc1
inactive: dose: 100.0 mg/kg/injection, schedule: Q01DX001 (ip), vehicle: Klucel (hydroxypropylcellulose) (HPC) 97 % of control | dose: 200.0 mg/kg/injection, schedule: Q01DX001 (ip), vehicle: Klucel (hydroxypropylcellulose) (HPC) 93 % of control | dose: 400.0 mg/kg/injection, schedule: Q01DX001 (ip), vehicle: Klucel (hydroxypropylcellulose) (HPC) 104 % of control

Nc1c([N+](=O)[O-])cc(Cl)c(Cl)c1F
inactive: [17] 101 % of control | [18] 96 % of control | dose: 400.0 mg/kg/injection, schedule: Q04DX002 (ip), vehicle: Klucel (hydroxypropylcellulose) (HPC) 96 % of control

O=c1oc(-c2ccccc2)nc2cc(Cl)ccc12
inactive: [12] 104 % of control | [13] 92 % of control | [19] 90 % of control | [14] 96 % of control and 103 % of control and 88 % of control | [20] 87 % of control | [15] 98 % of control | [21] 92 % of control | [16] 90 % of control

CN1CCN(C2CCCc3ccccc3C2O)CC1 (centres undefined)
inactive: dose: 5.0 mg/kg/injection, schedule: Q01DX001 (ip), vehicle: saline 109 % of control | dose: 10.0 mg/kg/injection, schedule: Q01DX001 (ip), vehicle: saline 105 % of control | dose: 20.0 mg/kg/injection, schedule: Q01DX001 (ip), vehicle: saline 103 % of control | dose: 40.0 mg/kg/injection, schedule: Q01DX001 (ip), vehicle: saline 103 % of control

O=C(Nc1nccs1)Nc1ccc(Cl)cc1Cl
inactive: [22] 91 % of control | [19] 98 % of control | [20] 109 % of control

C=CCN(CC=C)c1nc(Cl)nc(Cl)n1
inactive: dose: 50.0 mg/kg/injection, schedule: Q01DX001 (ip), vehicle: carboxymethylcellulose (CMC) 106 % of control | dose: 100.0 mg/kg/injection, schedule: Q01DX001 (ip), vehicle: carboxymethylcellulose (CMC) 98 % of control | [17] 105 % of control | [18] 101 % of control

Cc1ccc(/C(Cc2ccccc2)=N\NC(N)=O)cc1
inactive: [6] 92 % of control | [7] 98 % of control | [8] 98 % of control

c1ccc(C(CC(c2ccccc2)(c2ccccc2)c2ccccc2)(c2ccccc2)c2ccccc2)cc1
inactive: [6] 96 % of control | [7] 94 % of control | [8] 105 % of control

CC(=O)Nc1ccc([I+]c2ccc([N+](=O)[O-])cc2)cc1
inactive: dose: 6.25 mg/kg/injection, schedule: Q01DX009 (ip), vehicle: Klucel (hydroxypropylcellulose) (HPC) 90 % of control | [9] 98 % of control | [1] 104 % of control | [2] 106 % of control | [3] 101 % of control | [20] 109 % of control

CNC(=O)Oc1ccc(C=Nc2cccc([N+](=O)[O-])c2)cc1
inactive: [3] 101 % of control | [4] 95 % of control | [5] 100 % of control

CCS(=O)(=O)/C=C(\C(=O)c1ccccc1)c1ccccc1
inactive: [3] 98 % of control | [4] 97 % of control | [5] 93 % of control

CCCCCCC(=O)CCCCCCCCCCCCC(=O)OC
inactive: [21] 88 % of control

Cc1ccccc1NC(=O)c1ccccc1
inactive: [14] 100 % of control | [15] 98 % of control | [16] 98 % of control

CC(C)=NNC(=O)c1ccccc1
inactive: [10] 94 % of control | [22] 110 % of control | [13] 96 % of control | [19] 113 % of control | [14] 108 % of control and 110 % of control | [15] 124 % of control | [16] 96 % of control

CC(C)CC(NC(=O)CNC(=O)CNC(=O)OCc1ccccc1)C(=O)O (centres undefined)
inactive: [14] 100 % of control | [15] 103 % of control | [16] 105 % of control

Clc1ccc(-c2cc(=[N+]3CCC4(CC3)SSC3(CC[N+](=c5cc(-c6ccc(Cl)cc6)ss5)CC3)S4)ss2)cc1 (centres undefined)
inactive: dose: 25.0 mg/kg/injection, schedule: Q01DX009 (ip), vehicle: water 90 % of control | dose: 50.0 mg/kg/injection, schedule: Q01DX009 (ip), vehicle: water 90 % of control | dose: 100.0 mg/kg/injection, schedule: Q01DX009 (ip), vehicle: water 88 % of control | dose: 400.0 mg/kg/injection, schedule: Q01DX009 (ip), vehicle: water 87 % of control

O=C(O)/C(Br)=C/C(=O)c1ccccc1
inactive: dose: 75.0 mg/kg/injection, schedule: Q01DX001 (ip), vehicle: steriod suspending solution 106 % of control | dose: 300.0 mg/kg/injection, schedule: Q01DX001 (ip), vehicle: steriod suspending solution 109 % of control

C1CC2(CCN1)SSC1(CCNCC1)S2
inactive: dose: 100.0 mg/kg/injection, schedule: Q01DX009 (ip), vehicle: saline 113 % of control | dose: 100.0 mg/kg/injection, schedule: Q04DX003 (ip), vehicle: saline 114 % of control | dose: 200.0 mg/kg/injection, schedule: Q01DX009 (ip), vehicle: saline 103 % of control | dose: 200.0 mg/kg/injection, schedule: Q04DX003 (ip), vehicle: saline 112 % of control | dose: 400.0 mg/kg/injection, schedule: Q04DX003 (ip), vehicle: saline 96 % of control

O=C(Nc1cccc(Cl)c1)Oc1c(Cl)cc(S(=O)(=O)F)cc1Cl
inactive: [11] 97 % of control | dose: 25.0 mg/kg/injection, schedule: Q04DX002 (ip), vehicle: saline with Tween-80 101 % of control | [22] 93 % of control | dose: 50.0 mg/kg/injection, schedule: Q04DX002 (ip), vehicle: saline with Tween-80 93 % of control | [19] 100 % of control | dose: 100.0 mg/kg/injection, schedule: Q04DX002 (ip), vehicle: saline with Tween-80 96 % of control and 90 % of control

Source: PubChem BioAssay AID248 (DTP/NCI, 2004)
